The results in this text go back to patent publication US7776946B2, “Aqueous emulsion polymerization of fluorinated monomers using a fluorinated surfactant” (3M Innovative Properties Company, priority 2005, dated 2010).

A short description of this data set: Determination of bio-accumulation: urinary clearance pharmacokinetic study in rats. It is filed as in vivo, male Sprague Dawley rats. The settings on record: 73 micro Moles per kg body weight, oral gavage; for T½ (renal half-life): exponential least squares curve fitting of urine concentration (fluorine NMR); for % Recovery (96 h): parent compound in urine up to 96 h; for Compound-related Effects: clinical signs, gross necropsy at 96 hours post-dose. The source says:
Animals we observed throughout the study for clinical signs of toxicity.

`N.O=C(O)C(F)(F)C(F)(F)OC(F)(F)F` [Compound 1, CF3—O—CF2—CF2—COONH4]: the “T½ (renal half-life)” value amounted to 11 h and the “% Recovery (96 h)” value came out at 100%.
Take `N.O=C(O)C(F)(F)C(F)(F)OC(F)(F)C(F)(F)F` [Compound 2, C2F5—O—CF2—CF2—COONH4]: the “T½ (renal half-life)” value is on record as 10 h and the “% Recovery (96 h)” value was 100%.
For `N.O=C(O)C(F)(F)C(F)(F)OC(F)(F)C(F)(F)C(F)(F)F` [Compound 3, C3F7—O—CF2—CF2—COONH4], the “T½ (renal half-life)” value was determined as 12 h and the “% Recovery (96 h)” value came to 82%.
In the case of `N.O=C(O)C(F)(F)C(F)(F)OC(F)(F)C(F)(F)C(F)(F)C(F)(F)F` [Compound 4, C4F9—O—CF2—CF2—COONH4], the “Compound-related Effects” value is “Hepatomegaly”, the “T½ (renal half-life)” value amounted to 31 h and the “% Recovery (96 h)” value is 42%.
As to `N.O=C(O)C(F)(F)C(F)(F)C(F)(F)C(F)(F)C(F)(F)C(F)(F)C(F)(F)F` [Compound C-1, C7F15COONH4, reference compound], the “Compound-related Effects” value is “Hepatomegaly”, the “T½ (renal half-life)” value is about 550 h and the “% Recovery (96 h)” value was determined as 6%.
